Measured values: ChEMBL document CHEMBL1150521, “2-NAP: a selective, hydrophilic, non-peptide CCKA - receptor antagonist derived from the cholecystokinin C-terminal dipeptide” (Bioorg Med Chem Lett, 1993)
Calls of active or inactive are those of the source. The rule behind the calls is not given here. Residues, ends and D or L forms follow the SMILES beside them. *: point of attachment. Boc = CC(C)(C)OC(=O)*

Assays:
[1] = biological target: T1, Cholecystokinin receptor type A (Cavia porcellus) (UniProt Q63931); assay: Affinity at Cholecystokinin type A receptor in guinea pig gall bladder; inactive at the limits of solubility, usually 10e-4 M.; assay type: tissue-based
T1 sequence (whole entry): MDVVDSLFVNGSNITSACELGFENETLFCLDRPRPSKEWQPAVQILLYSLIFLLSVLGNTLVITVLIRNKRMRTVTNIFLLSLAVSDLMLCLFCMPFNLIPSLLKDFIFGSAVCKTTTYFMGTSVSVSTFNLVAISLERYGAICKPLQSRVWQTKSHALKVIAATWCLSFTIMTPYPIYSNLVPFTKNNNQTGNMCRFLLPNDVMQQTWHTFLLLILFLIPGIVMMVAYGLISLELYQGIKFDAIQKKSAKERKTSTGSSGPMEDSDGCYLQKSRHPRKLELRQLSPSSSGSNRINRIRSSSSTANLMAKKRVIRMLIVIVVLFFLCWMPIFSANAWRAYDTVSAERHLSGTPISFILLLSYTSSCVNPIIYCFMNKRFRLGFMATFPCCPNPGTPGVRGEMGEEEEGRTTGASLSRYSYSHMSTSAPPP

[2] = biological target: T1, Cholecystokinin receptor type A (Cavia porcellus); assay: Binding affinity for Cholecystokinin type A receptor in Guinea-Pig gall bladder; assay type: tissue-based
[3] = biological target: T2, Gastrin/cholecystokinin type B receptor (Mus musculus) (UniProt P56481); assay: Efficiency against CCKB/Gastrin receptor for stimulation of gastric acid secretion in lumen-perfused mouse stomach: activity measured as midpoint agonist concentration-effect curve parameter; assay type: functional, tissue-based
T2 sequence (whole entry): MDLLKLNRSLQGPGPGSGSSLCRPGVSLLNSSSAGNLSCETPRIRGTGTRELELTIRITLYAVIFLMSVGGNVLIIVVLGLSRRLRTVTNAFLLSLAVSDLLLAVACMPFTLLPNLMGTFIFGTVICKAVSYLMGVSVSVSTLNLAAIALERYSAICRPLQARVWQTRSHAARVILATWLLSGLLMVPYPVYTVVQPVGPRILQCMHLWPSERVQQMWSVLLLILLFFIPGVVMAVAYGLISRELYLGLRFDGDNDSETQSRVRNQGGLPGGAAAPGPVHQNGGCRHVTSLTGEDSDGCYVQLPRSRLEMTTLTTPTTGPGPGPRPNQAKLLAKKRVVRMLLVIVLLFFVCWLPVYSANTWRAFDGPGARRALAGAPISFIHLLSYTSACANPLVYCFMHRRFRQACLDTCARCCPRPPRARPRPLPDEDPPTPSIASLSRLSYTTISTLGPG

[4] = biological target: T2, Gastrin/cholecystokinin type B receptor (Mus musculus); assay: Maximum acid secretion obtained at 10e -5 M: values expressed as percentage of the maximum response to pentagastrin (n=4/6) in mouse stomach at CCKB/Gastrin receptor; assay type: functional, tissue-based
[5] = biological target: T1, Cholecystokinin receptor type A (Cavia porcellus); assay: Compound was evaluated for its affinity at Cholecystokinin type A receptor in Guinea-Pig gallbladder
[6] = biological target: T2, Gastrin/cholecystokinin type B receptor (Mus musculus); assay: Efficiency against CCKB/Gastrin receptor for stimulation of gastric acid secretion in lumen-perfused mouse stomach: activity measured as midpoint agonist concentration-effect curve parameter; inactive at the limits of solubility, u sually 10e-4M.; assay type: functional, tissue-based
[7] = biological target: T2, Gastrin/cholecystokinin type B receptor (Mus musculus); assay: Maximum acid secretion obtained at 10e -5 M: values expressed as percentage of the maximum response to pentagastrin (n=4/6) in mouse stomach at CCKB/Gastrin receptor; inactive at the limits of solubility, usually 10e-4 M.; assay type: functional, tissue-based
[8] = Compound was evaluated for partition coefficient using chloroform/buffer at pH 7.4 and 280 nm; assay type: physicochemical; details: octanol/water
[9] = Compound was evaluated for partition coefficient using chloroform/buffer at pH 7.4 and 254 nm; assay type: physicochemical; details: octanol/water
[10] = biological target: T1, Cholecystokinin receptor type A (Cavia porcellus); assay: Compound was evaluated for its affinity at Cholecystokinin type A receptor in Guinea-Pig gall bladder; assay type: tissue-based
[11] = biological target: T1, Cholecystokinin receptor type A (Cavia porcellus); assay: Compound was evaluated for its affinity at Cholecystokinin type A receptor in Guinea-Pig gall bladder; inactive at 10e-4 M; assay type: tissue-based
[12] = biological target: T3, Cholecystokinin receptor type A (Cavia porcellus, UniProt Q63931); assay: In vitro affinity against Cholecystokinin type A receptor in guinea pig pancreatic cell
T3 sequence (Q63931 whole entry): T1 sequence (whole entry)

[13] = biological target: T4, Gastrin/cholecystokinin type B receptor (Mus musculus, UniProt P56481); assay: Compound was evaluated for its affinity against Cholecystokinin type B receptor in mouse cerebral cortex; assay type: tissue-based
T4 sequence (P56481 whole entry): T2 sequence (whole entry)

[14] = biological target: T1, Cholecystokinin receptor type A (Cavia porcellus); assay: Compound was evaluated for its affinity at Cholecystokinin type A receptor in Guinea-Pig gallbladder; inactive at the limits of solubility, usually 10e-4 M.

## COc1ccc(S(=O)(=O)N[C@@H](CC(=O)O)C(=O)NCCc2ccccc2)cc1
[1]
  pKB: inactive

## COc1cc2cc(S(=O)(=O)N[C@@H](CC(=O)O)C(=O)NCCc3ccccc3)ccc2c(Cl)c1OC
[2]
  pKB: 6.2

## NC(=O)[C@H](Cc1ccccc1)NC(=O)[C@H](CC(=O)O)NS(=O)(=O)c1cccc2ccccc12
[1]
  pKB: inactive
[3]
  p[A50]: 4.6
[4]
  Max response: 30%

## O=C(O)C[C@H](NS(=O)(=O)Cc1ccc2ccccc2c1)C(=O)NCCc1ccccc1
[2]
  pKB: 5.4

## O=C(O)C[C@H](NC(=O)c1ccc2ccccc2c1)C(=O)NCCc1ccccc1
[5]
  pKB: 5.6
[6]
  p[A50]: inactive
[7]
  Max response: inactive

## O=C(O)C[C@H](NS(=O)(=O)c1ccc2ccccc2c1)C(=O)NCCc1ccc(F)cc1
[2]
  pKB: 6.6

## NS(=O)(=O)c1ccc(CCNC(=O)[C@H](CC(=O)O)NS(=O)(=O)c2ccc3ccccc3c2)cc1
[2]
  pKB: 5

## O=C(O)C[C@H](NS(=O)(=O)CCCc1ccccc1)C(=O)NCCc1ccccc1
[1]
  pKB: inactive

## CN1C(=O)[C@@H](NC(=O)c2cc3ccccc3[nH]2)N=C(c2ccccc2)c2ccccc21 [DEVAZEPIDE]
[8]
  logD: 4.1
[9]
  logD: 4.16

## Cc1ccc(S(=O)(=O)N[C@@H](CC(=O)O)C(=O)NCCc2ccccc2)cc1
[1]
  pKB: inactive

## O=C(O)C[C@H](NS(=O)(=O)c1cccc2ccccc12)C(=O)NCCc1ccccc1
[1]
  pKB: inactive
[6]
  p[A50]: inactive
[7]
  Max response: inactive

## CC(C)C[C@H](NC(=O)[C@H](Cc1c[nH]c2ccccc12)NC(=O)OC(C)(C)C)C(=O)N[C@@H](CC(=O)O)C(=O)N[C@@H](Cc1ccccc1)C(N)=O (Boc-WLDF-NH2)
[10]
  pKB: 5.1
[3]
  p[A50]: 8.6
[4]
  Max response: 100%

## O=C(O)C[C@H](NS(=O)(=O)c1ccc2ccccc2c1)C(=O)NCCCc1ccccc1
[2]
  pKB: 7

## CC(C)(C)OC(=O)N[C@@H](CC(=O)O)C(=O)N[C@@H](Cc1ccccc1)C(N)=O (Boc-Asp-Phe-NH2)
[3]
  p[A50]: 5.7
[11]
  pKB: inactive
[4]
  Max response: 100%

## O=C(O)C[C@H](NS(=O)(=O)CCc1ccccc1)C(=O)NCCc1ccccc1
[2]
  pKB: 5.5

## O=C(O)CC[C@@H](NS(=O)(=O)c1ccc2ccccc2c1)C(=O)NCCc1ccccc1
[1]
  pKB: inactive

## O=C(O)CC[C@H](NS(=O)(=O)c1ccc2ccccc2c1)C(=O)NCCc1ccccc1
[2]
  pKB: 6.1

## O=C(O)C[C@H](NS(=O)(=O)c1ccc(Cl)c(Cl)c1)C(=O)NCCc1ccccc1
[2]
  pKB: 5.8

## COc1ccc2cc(S(=O)(=O)N[C@@H](CC(=O)O)C(=O)NCCc3ccccc3)ccc2c1Cl
[2]
  pKB: 6.5

## O=C(O)C[C@H](NS(=O)(=O)Cc1ccccc1)C(=O)NCCc1ccccc1
[1]
  pKB: inactive

## O=C(O)C[C@H](NS(=O)(=O)/C=C/c1ccccc1)C(=O)NCCc1ccccc1
[2]
  pKB: 6.3

## NC(=O)[C@H](Cc1ccccc1)NC(=O)[C@H](CC(=O)O)NC(=O)c1ccc2ccccc2c1
[1]
  pKB: inactive
[3]
  p[A50]: 5
[4]
  Max response: 100%

## COc1ccc(CCNC(=O)[C@H](CC(=O)O)NS(=O)(=O)c2ccc3ccccc3c2)cc1
[2]
  pKB: 6

## O=C(O)C[C@@H](NS(=O)(=O)c1ccc2ccccc2c1)C(=O)NCCc1ccccc1
[2]
  pKB: 5.9

## O=C(O)C[C@H](NS(=O)(=O)c1ccccc1)C(=O)NCCc1ccccc1
[1]
  pKB: inactive

## O=C(O)C[C@H](NS(=O)(=O)c1ccc2ccccc2c1)C(=O)NCCc1ccccc1
[12]
  Ki: 0.355 µM
[1]
  pKB: 6.5
[6]
  p[A50]: inactive
[7]
  Max response: inactive
[8]
  logD: -0.91
[9]
  logD: -0.91
[13]
  Ki: 69.2 µM

## CC(C)(C)OC(=O)N[C@@H](CC(=O)O)C(=O)NCCc1ccccc1
[6]
  p[A50]: inactive
[7]
  Max response: inactive
[14]
  pKB: inactive

## NC(=O)[C@H](Cc1ccccc1)NC(=O)[C@H](CC(=O)O)NS(=O)(=O)c1ccc2ccccc2c1
[1]
  pKB: inactive
[3]
  p[A50]: 5.6
[4]
  Max response: 96%

## COc1ccc2cc(S(=O)(=O)N[C@@H](CC(=O)O)C(=O)NCCc3ccccc3)ccc2c1
[2]
  pKB: 6.6
